Source: US7749962B2, “Alpha 5 beta 1 and its ability to regulate the cell survival pathway” (University of Medicine & Dentistry of NJ, priority 2002, dated 2010)
Like-named read-outs stand apart in the source and are kept apart here.

Tests used:
Akt [1] = assay: Western blot of Akt phosphorylation after ATRA; format: cell-based
Method: MCF-7 cells were treated with EGF 100 ng/ml for 10 min followed by ATRA 10^−7 M or control media 2 h later for an additional 24 h. Western blots of lysates were stained with anti-phospho-Akt ab. Cells were harvested and lysates were prepared as described^2 and analyzed as before^3.

RhoA = RhoA (Homo sapiens, UniProt P61586); details: target RhoA, cited from earlier work
MCF-7 and T-47D cells = assay: Clonogenic potential with growth factors in tissue culture; format: cell-based; details: growth factor 10 ng/ml
Method: (§1) One thousand MCF-7 or MDA MB-231 cells per well were incubated in 24 well tissue culture plates with and without the presence of 10 ng/ml basic fibroblast growth factor (FGF-2) or epidermal growth factor (EFG). Plates were stained with crystal violet after a 5 day incubation and clones consisting of A. 29±2 cells and B. 8±2 cells were counted. C. Ten thousand T-47D cells per well were incubated in 24 well tissue culture plates coated with fibronectin with and without the presence of 10 ng/ml basic fibroblast growth factor (FGF-2) or epidermal growth factor (EFG). Plates were stained with crystal violet after 3 days and clones consisting of 8 or more cells were counted.
(§2) MCF-7 and T-47D (1,000 cells/well) and MDA MB-231 (200 cells per well) were incubated in 24 well plates±10 ng/ml EFG or FGF-2 for 6 days, stained with crystal violet and clones with ≧29 actively growing cells (▪) or with ≦10 well spread, growth arrested cells ( ? ) were counted.
(§3) MCF-7, SK-Br-3, MDA-MB-231, PC-3 and LNCaP cells were purchased from the American Type Culture Collection (ATCC), (Rockville, Md.). Cells were cultured in Dulbecco's Modified Eagle's Medium (DMEM) (Gibco BRL, Gaithersburg, Md.) with phenol red 15 mg/l, 2 mM glutamine, 10% heat inactivated fetal calf serum (FCS) and penicillin 50 units/ml and streptomycin 50 micrograms μg/ml (Gemini Bioproducts, Calabasas, Calif.). One to ten thousand cells were incubated on 24 well tissue culture plates that were either commercially coated for tissue culture (uncoated) or coated with 20 g fibronectin, laminin I, collagen I or collagen IV, depending on the cell type or experimental conditions described in the figure legends. Colonies were manually counted at 100× magnification after variable days in culture as described in the figure legends after removing the media and staining cells with crystal violet. Proliferation kinetics were performed as before^1 using 2% trypan blue counts on trypsinized cells on the days indicated in the figure in triplicate plates.

MDA-MB-231 cells = assay: as above; format: cell-based; details: growth factor 10 ng/ml
Method: as §1, §2, §3

Akt [2] = assay: Western blot of Akt phosphorylation by FGF-2 on fibronectin; format: cell-based
Method: Western blots of lysates from MCF-7, T-47D and MDA-MB-231 cells incubated on fibronectin-coated plates with FGF-2 for up to 5 days were stained with antibody to phospho-Akt or total Akt. […] No effect was noted on total Akt levels. Stained membrane was used as a loading control.
(§4) Cells were harvested and lysates were prepared as described^2 and analyzed as before^3.

integrin α5 = assay: Western blot of integrin α5 expression ± FGF-2; format: cell-based
Method: A. Gene chip analysis of integrin α5 and β1 mRNA expression in MCF-7 cells incubated±FGF-2 for 3 or 5 days on fibronectin-coated plates. Densitometer quantitations normalized against GAPDH and actin mRNA standards are shown. B. Western blots of integrin α5 from cells incubated±FGF-2 for 3 days on tissue culture- or fibronectin-coated dishes. C. Indirect immunofluorescence of integrin α5 in T-47D cells on cover slips±FGF-2 10 ng/ml for 24 hours. D. Western blots of integrins α2, α3, α4, α6, β1, β3 and β4 in MCF-7 and T-47D cells incubated±FGF-2 for 3 days. Nonspecific bands were as loading controls.
as §4

MCF-7 cells = assay: Clonogenicity ± fibronectin with FGF-2 and fibronectin-blocking peptide; format: cell-based; details: FGF-2 10 ng/ml; peptide 1 ng/ml added after 3 days, counted 6 days later
Method: 10^3 MCF-7 (and T-47D, not shown) cells were incubated±fibronectin with 10 ng/ml FGF-2. Fibronectin-blocking peptide GRGDSP 1 ng/ml (American Peptide Co., Inc, Sunnyvale, Calif.) was added after 3 days and 4, 8 and 12 cell colonies were counted 6 days later.
as §3

Sequence of RhoA (P61586 whole entry, species assumed): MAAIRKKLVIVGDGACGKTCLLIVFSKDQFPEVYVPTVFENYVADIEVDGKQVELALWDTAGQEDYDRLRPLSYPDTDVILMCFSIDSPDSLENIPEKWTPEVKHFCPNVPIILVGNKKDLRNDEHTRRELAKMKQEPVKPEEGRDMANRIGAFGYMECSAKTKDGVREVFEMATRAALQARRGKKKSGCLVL

With `CC1=C(/C=C/C(C)=C/C=C/C(C)=C/C(=O)O)C(C)(C)CCC1` [ATRA, all-trans retinoic acid] the “FGF-2 induced increases in total and phosphorylated Akt” value (Akt [1]) was “reversed FGF-2 induced increases in total and Phosphorylated Akt” and the “EGF-mediated phosphorylation of Akt” value (Akt [1]; MCF-7 cells, EGF 100 ng/ml, ATRA 10^−7 M for 24 h) was “reversed the EGF-mediated phosphorylation of Akt”.
In the case of C3 transferase, the ED50 (RhoA) is given as 2 to 5 µg/mL and the ED50 (RhoA; listed as C3 transferase inhibitor) is given as 2 to 5 µg/mL.
With “EFG: epidermal growth factor; recombinant human, R&D Systems” the clonogenic potential (MCF-7 and T-47D cells) was “no effect” and the “growth (clonogenic potential)” value (MDA-MB-231 cells) was “no effect”.
In the case of “FGF-2: fibroblast growth factor 2, basic fibroblast growth factor; recombinant human, R&D Systems”, the “phosphorylation of Akt” value (Akt [2]; MCF-7 and T-47D cells on fibronectin, up to 5 days) is reported as “induced phosphorylation of Akt”, the “phosphorylation of Akt” value (Akt [2]; MDA-MB-231 cells on fibronectin, constitutive phosphorylation) is reported as “no effect on constitutive Akt phosphorylation” and the clonogenic potential (MCF-7 and T-47D cells) is reported as “markedly diminished clonogenic potential”. The “growth (clonogenic potential)” value (MDA-MB-231 cells) was “no effect”, the “integrin α5 expression” value (integrin α5; MCF-7 and T-47D cells on plastic or fibronectin-coated dishes) was “induction of integrin α5 expression” and the “integrin α5 expression” value (integrin α5; MDA-MB-231 cells, baseline high levels) was “No effect”.
In the case of GRGDSP, the colonies on fibronectin (MCF-7 cells) is reported as “only inhibited colonies on fibronectin” and the colonies on plastic (MCF-7 cells) is reported as “not on plastic”.
